Measurements reported in the supplement of paper PMC10307832.

What was measured:
Assay in all cases: relative viability (nuclei count vs DMSO), 5 days (fraction); higher = more cells survive
[1] = compound: COC1=CC=C(C=C1)CN2C=CC3=C2C=C(C=C3)C(=O)NO + COc1cccc2cc(-c3nc([C@H]4CC[C@H](C(=O)O)CC4)n4ncnc(N)c34)[nH]c12 [OSI-027] (partner 0.5 µM)
How it was run: (§1)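 After 5 days of treatment, lung cancer cells in 1536-well plates were fixed and stained in a single step (final 0.05% Triton X-100, 1% formaldehyde, 1 ug/ml Hoechst) and their nuclei counted on 4× images. Treatment had been applied by pin tool the day after seeding as one drug alone or as a fixed anchor-drug dose with five library-drug doses (not always all listed) in √10 steps. Relative viability is the nuclei count of treated wells divided by that of vehicle wells, and values are medians of duplicate plates.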

[2] = compound: COC1=CC=C(C=C1)CN2C=CC3=C2C=C(C=C3)C(=O)NO + C[C@@H](Oc1cc(-c2cnn(C3CCNCC3)c2)cnc1N)c1c(Cl)ccc(F)c1Cl [Crizotinib] (partner 1 µM)
How it was run: as §1

Veliparib + Bortezomib = compound: C[C@]1(c2nc3c(C(N)=O)cccc3[nH]2)CCCN1 [Veliparib] + CC(C)C[C@H](NC(=O)[C@H](Cc1ccccc1)NC(=O)c1cnccn1)B(O)O [Bortezomib] (partner 0.002 µM)
How it was run: as §1

Veliparib + Phenformin = compound: C[C@]1(c2nc3c(C(N)=O)cccc3[nH]2)CCCN1 [Veliparib] + N=C(N)NC(=N)NCCc1ccccc1 [Phenformin] (partner 250 µM)
How it was run: as §1

SW 1573 was tested. Which relative viability ([1]; first compound 0.253 µM) did it give?
Its relative viability is 0.616.

And the relative viability ([1]; first compound 0.8 µM)?
Its relative viability is 0.785.

What about the relative viability ([1]; first compound 2.53 µM) of the same cell line?
The relative viability was 0.519.

And the relative viability ([1]; first compound 8 µM)?
Its relative viability is 0.396.

What about the relative viability ([2]; first compound 0.253 µM) of the same cell line?
The relative viability was 0.908.

What about the relative viability ([2]; first compound 0.8 µM) of the same cell line?
Its relative viability is 0.803.

What about the relative viability ([2]; first compound 2.53 µM) of the same cell line?
The relative viability was 0.755.

What about the relative viability ([2]; first compound 8 µM) of the same cell line?
Its relative viability is 0.587.

And the relative viability (Veliparib + Bortezomib; first compound 0.02 µM)?
Its relative viability is 0.951.

And the relative viability (Veliparib + Bortezomib; first compound 0.06325 µM)?
The relative viability was 0.982.

And the relative viability (Veliparib + Bortezomib; first compound 0.2 µM)?
Its relative viability is 1.07.

And the relative viability (Veliparib + Bortezomib; first compound 0.6325 µM)?
The relative viability was 0.862.

What about the relative viability (Veliparib + Bortezomib; first compound 2 µM) of the same cell line?
Its relative viability is 1.06.

And the relative viability (Veliparib + Phenformin; first compound 0.06325 µM)?
The relative viability was 0.32.

And the relative viability (Veliparib + Phenformin; first compound 0.2 µM)?
Its relative viability is 0.419.

And the relative viability (Veliparib + Phenformin; first compound 0.6325 µM)?
The relative viability was 0.324.

And the relative viability (Veliparib + Phenformin; first compound 2 µM)?
Its relative viability is 0.4.
